# Laboratory results as given in patent US4461771A, “Treatment of migraine with dioxopiperidine derivatives” (priority 1983, dated 1984).
# pIC50: −log10 of the molar value. Counter-ions that a name gives are not always drawn.
# What was measured:
# [1] = system: tryptophan hydroxylase; assay: Inhibition of the depolarisation induction of tryptophan hydroxylase in rat brainstem slices; format: cell-based; conditions: 37° C., from concentration response curves, read-out: IC50, concentration causing 50 percent inhibition of the depolarisation induction of tryptophan hydroxylase
# Description: The activity of the compounds as inhibitors of the depolarisation induction of tryptophan hydroxylase can be assessed by determining the IC50 in rat brainstem slices as described by Margaret C. Boadle-Biber, Biochemical Pharmacology 27 1069 (1978). The IC50 values are derived from concentration response curves as the concentration causing 50 percent inhibition of the depolarisation induction at 37° C. As an illustration the IC50 of d,l 3-(3'-methoxyphenyl)-3-(3"-N,N-dimethylaminopropyl)-4,4-dimethyl-2,6-dioxopiperidine hydrochloride is 10 μM.
# [2] = system: 5-HT transmission; assay: Fenfluramine-induced hyperthermia in rats (reduction of 5-HT transmission in vivo); conditions: four day chronic pretreatment, 10 mg/kg ip. twice daily, fenfluramine 7.5 mg/kg ip.
# Description: The activity of the compounds to reduce 5-HT transmission can be assessed in vivo by measuring their effect on the hyperthermia induced by an intraperitoneal injection of fenfluramine (see A. Sulpizio et al, Life Sciences 22 1439 (1978). As an illustration a four day chronic pretreatment of rats with 3-(3'-methoxyphenyl)-3-(3"-N,N dimethylaminopropyl) 4,4-dimethyl-2,6-dioxopiperidine hydrochloride at a dose level of 10 mg/kg ip. twice daily produced a 50 percent reduction in the hyperthermia induced by fenfluramine administered at a dose level of 7.5 mg/kg ip.
structure (smiles),measurement,setting,value
"COc1cccc(C2(CCCN(C)C)C(=O)NC(=O)CC2(C)C)c1 (racemic) [Example 1, 3-(3'-Methoxyphenyl-3-(3""-N,N-dimethylaminopropyl)-4,4-dimethyl-2,6-dioxopiperidine hydrochloride]",pIC50,[1],5.00
same,reduction in the hyperthermia induced by fenfluramine,[2],50%
